Patent US8841277B2, “Methods for treating non-small cell lung cancer using 5-azacytidine” (Celgene Corporation, priority 2009, dated 2014)
pEC50, pIC50: −log10 of the molar value. Entries after “also recorded” stand apart in the source; their conditions may differ.

Experiments:
H1299 cells [1] = test: Gene expression microarray analysis, H1299; type: cell-based, human; details: 48 hours; for Downregulated Genes: AZA-Specific / DAC-Specific Genes (number) / Upregulated Genes: AZA-Specific / DAC-Specific Genes (number) / Downregulated Genes: Genes in Common (number) / Upregulated Genes: Genes in Common (number): H1299; for Downregulated Genes: Genes in Common (number) / Upregulated Genes: Genes in Common (number): regulated by both AZA and DAC;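 for Downregulated Genes: AZA-Specific / DAC-Specific Genes (number): drug dose range 0.3 to 3 µM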;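 for Downregulated Genes: Genes in Common (number): drug dose range 0.3 to 3 µM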;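 for Upregulated Genes: AZA-Specific / DAC-Specific Genes (number): drug dose range 0.3 to 3 µM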;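 for Upregulated Genes: Genes in Common (number): drug dose range 0.3 to 3 µM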
Procedure: Cells were lysed using the TRIzol reagent (Life Technologies Corporation) and total RNA was isolated using miRNeasy (Qiagen). Double-stranded cDNA and biotin-labeled cRNA were synthesized using 100 ng of total RNA using Ambion's MessageAmp Premier RNA Amplification Kit (ABI; Foster City, Calif.). Biotin-labeled cRNA, at 10 μg, was fragmented and hybridized to each human U133A 2.0 genechip (Affymetrix; Santa Clara, Calif.). The GC-RMA algorithm was used for normalization and all analyses were done using GeneSpring 7.3 (Agilent; Santa Clara, Calif.). Averaged signals from biological duplicate samples were used to determine fold change (Treated vs. Untreated), with an absolute fold change of ≧1.7 defining regulated genes. NextBio was used to identify regulated Gene Ontology biogroups from lists of regulated genes. The top 15 biogroups are those with the lowest p-values calculated within NextBio.
The number of genes modulated in common between the two drugs was low.
Functional groupings of the modulated genes were determined using Gene Ontology classifications in Nextbio (http://www.nextbio.com/).

A549 cells [2] = test: Cell viability (CyQuant assay), A549; type: cell-based; details: 72 hours; for HillSlope / LogIC50 / pIC50: A549 viability, best-fit value; for LogIC50: log(inhibitor) vs. normalized response -- Variable slope; for pEC50 / pIC50: Homo sapiens; for pEC50: A549, read-out: EC50 of effect on viability
Procedure: Certain NSCLC cell lines (H460, H1299, A549, and H1975) were purchased from American Type Culture Collection (ATCC; Manassas, Va.). The H23NSCLC cell line was obtained from the National Cancer Institute (NCI; Bethesda, Md.). Cell lines were cultured in their respective media, as recommended by ATCC and NCI. AZA was manufactured at Aptuit (Greenwich, Conn.) for Celgene (Summit, N.J.), while DAC was purchased from Sigma-Aldrich (St. Louis, Mo.). In all experiments, cells were seeded 24 hours before drug treatment and incubated at 37° C./5% CO2, For cell viability assays, H460, H1299, A549, H23, and H1975 cells were seeded in triplicate at 1×10^3, 1×10^3, 1×10^3, 4×10^3, and 4×10^3 cells per well, respectively, in 96-well plates, using 200 μL of medium per well. Fresh drug was added every 24 hours by replacing medium with drug-containing medium. For all other assays, cells were seeded at 0.6-1.2×10^5 cells per well, in 6-well plates, using 4 mL of medium per well, with fresh drug added directly to the medium every 24 hours.
Cell viability was assessed using the CyQuant assay (Life Technologies Corporation; Carlsbad, Calif.). Fluorescence was measured with a spectrophotometer (Molecular Devices; Sunnyvale, Calif.), and EC50 values were calculated in Prism® version 5.01 (GraphPad Software, Inc.; La Jolla, Calif.), using results from three independent experiments.
The six data sets represent calculations of EC50 values from raw data using Prism®. The standard deviation among the three independent experiments was determined at each drug concentration. For some of the cell lines, Prism® was not able to calculate the EC50 for DAC. For those curves that an EC50 was available, the SE (Std. Error) was acceptable (SE of the logEC50 should be less than 0.5), meaning that the standard errors were not too large. The 95% Confidence Intervals for the EC50 were considered as a measure of error.

H1299 cells [3] = test: Apoptosis (AnnexinV-FITC/7-AAD), H1299; type: cell-based; details: 0.3-10 μM
From the text: (§1) For cell cycle distribution, cells were stained with the NIM-DAPI reagent (Beckman Coulter, Inc.; Fullerton, Calif.). For measurement of early- and late-apoptotic cell populations, cells were stained with AnnexinV-FITC and 7-AAD reagents (Beckman Coulter, Inc.). Samples were processed according to manufacturer's instructions and analyzed on a Cell Lab Quanta MPL flow cytometer (Beckman Coulter, Inc.). […] Data were also collected for untreated cells as control.

MDS, AML, CML, ALL, NHL = details: e.g. treatment of MDS, Aparicio et al. 2002; cited from earlier work
H1299 cells [4] = test: Cell cycle distribution (NIM-DAPI), H1299; type: cell-based
From the text: (§2) These studies examined the cell cycle distribution of NSCLC cells treated with AZA or DAC using NIM-DAPI analysis.
as §1

[5] = test system: LINE-1 elements in A549 cells; test: LINE-1 Methylation Assay, A549; type: cell-based; details: for DNA hypomethylation (LINE-1 methylation): 48 hours or 72 hours
Procedure: Genomic DNA was purified from cells using the DNeasy Blood and Tissue Kit (Qiagen; Valencia, Calif.), according to the manufacturer's instructions. DNA yield was quantitated with a NanoDrop 8000 spectrophotometer (Thermo Fisher Scientific, Inc.). DNAs (1 μg/sample) were submitted to EpigenDx (Worcester, Mass.) for bisulfate conversion and pyrosequencing of LINE-1 elements. Briefly, 1 μg of DNA was bisulfite-treated using the Zymo DNA Methylation Kit (Zymo Research; Orange, Calif.) and eluted in 10 μL volume. DNA eluate (1 μL) was used for PCR with biotinylated primers to the LINE-1 locus, converting the PCR product to single-stranded DNA templates. PCR products (each 10 μL) were sequenced by Pyrosequencing PSQ96 HS System (Biotage AB), following the manufacturer's instructions (Biotage; Kungsgatan, Sweden). The methylation status of each locus was analyzed individually as a T/C SNP using QCpG software (Biotage). Percent LINE-1 methylation represents the average percent methylation of four CpG sites in duplicate samples.
At the highest drug concentration tested (3 μM), LINE-1 methylation was less affected, possibly due to reduced drug incorporation as a result of inhibited cell proliferation.

A549 cells [6] = test: Cell cycle distribution (NIM-DAPI), A549; type: cell-based
From the text: as §2, §1

DNMT1 = DNMT1 protein depletion, H23; type: cell-based; details: H23 cell line
Procedure: Reduced DNMT1 levels were detected in these cell lines as early as 4 hours after drug treatment (FIG. 17).

Row | SMILES | Downregulated Genes: AZA-Specific / DAC-Specific Genes (number) (H1299 cells [1]; 0.3 μM) | Upregulated Genes: AZA-Specific / DAC-Specific Genes (number) (H1299 cells [1]; 0.3 μM) | Downregulated Genes: Genes in Common (number) (H1299 cells [1]; 0.3 μM) | Upregulated Genes: Genes in Common (number) (H1299 cells [1]; 0.3 μM) | Downregulated Genes: AZA-Specific / DAC-Specific Genes (number) (H1299 cells [1]; 1.0 μM) | Upregulated Genes: AZA-Specific / DAC-Specific Genes (number) (H1299 cells [1]; 1.0 μM) | Downregulated Genes: Genes in Common (number) (H1299 cells [1]; 1.0 μM) | Upregulated Genes: Genes in Common (number) (H1299 cells [1]; 1.0 μM) | Downregulated Genes: AZA-Specific / DAC-Specific Genes (number) (H1299 cells [1]; 3.0 μM) | Upregulated Genes: AZA-Specific / DAC-Specific Genes (number) (H1299 cells [1]; 3.0 μM) | Downregulated Genes: Genes in Common (number) (H1299 cells [1]; 3.0 μM) | Upregulated Genes: Genes in Common (number) (H1299 cells [1]; 3.0 μM) | HillSlope (A549 cells [2]) | LogIC50 (A549 cells [2]) | pEC50 (A549 cells [2]) | pIC50 (A549 cells [2]) | Early- and late-apoptotic cell populations (AnnexinV/7-AAD) (H1299 cells [3]; 48-hour treatment) | Early- and late-apoptotic cell populations (AnnexinV/7-AAD) (H1299 cells [3]; 72-hour treatment) | Anti-tumor activity in clinical trials (MDS, AML, CML, ALL, NHL) | Cell cycle distribution (NIM DAPI) (H1299 cells [4]; 72-hour treatment, 0.3-10 μM) | further results
1 | Nc1ncn([C@@H]2O[C@H](CO)[C@@H](O)[C@H]2O)c(=O)n1 [AZA, 4-amino-1-β-D-ribofuranosyl-1,3,5-triazin-2(1H)-one] | 33 | 10 | 45 | 55 | 393 | 435 | 107 | 135 | 991 | 1368 | 153 | 173 | −1.108 | 0.8033 | 5.19 | 5.20 | dramatic increase in early-apoptotic (AnnexinV^+ 7-AAD^−) and late-apoptotic (AnnexinV^+ 7-AAD^+) cells | dramatic increase in early-apoptotic (AnnexinV^+ 7-AAD^−) and late-apoptotic (AnnexinV^+ 7-AAD^+) cells | significant anti-tumor activity | induced accumulation of cells in G2/M and Sub-G1 | Cell cycle distribution (NIM DAPI) (H1299 cells [4]; summary of studies): induced accumulation of cells in Sub-G1; Concentration of peak hypomethylation (LINE-1) ([5]; 48 or 72 hours): 0.3-1 μM; DNA hypomethylation (LINE-1 methylation) [5]: induced DNA hypomethylation; also recorded: caused a decrease in LINE-1 methylation; Cell cycle distribution (NIM DAPI) (A549 cells [6]; 48-hour treatment, 0.3-10 μM): induced accumulation of cells in G2/M and Sub-G1; Cell cycle distribution (NIM DAPI) (A549 cells [6]; 72-hour treatment, 0.3-10 μM): induced accumulation of cells in G2/M and Sub-G1; Cell cycle distribution (NIM DAPI) (A549 cells [6]; summary of studies): induced accumulation of cells in G2/M and Sub-G1; DNMT1 depletion (DNMT1): time- and dose-dependent depletion
2 | Nc1ncn([C@H]2C[C@H](O)[C@@H](CO)O2)c(=O)n1 [DAC, 5-aza-2′-deoxycytidine] | 121 | 214 | 45 | 55 | 170 | 238 | 107 | 135 | 257 | 303 | 153 | 173 | −0.4617 | 1.556 | < 4.60 | 4.44 | very slight increase in these cell populations | very slight increase in these cell populations | significant anti-tumor activity | induced accumulation of cells in G2/M and Sub-G1; also recorded: induced accumulation of cells in Sub-G1 while DAC also caused an increase of cells in G2/M | Fold more genes modulated than AZA (H1299 cells [1]; H1299 (stated for A549 and H1299 together), 0.3 μM): 4- to 20 fold; Cell cycle distribution (NIM DAPI) (H1299 cells [4]; 48-hour treatment, 0.3-10 μM): induced accumulation of cells in G2/M; Cell cycle distribution (NIM DAPI) (H1299 cells [4]; summary of studies): induced accumulation of cells in Sub-G1 while DAC also caused an increase of cells in G2/M; Concentration of peak hypomethylation (LINE-1) ([5]; 48 or 72 hours): 0.1 μM; Potency in decreasing LINE-1 methylation relative to AZA ([5]; 48 or 72 hours): 3- to 10 fold; DNA hypomethylation (LINE-1 methylation) [5]: induced DNA hypomethylation; also recorded: caused a decrease in LINE-1 methylation; Cell cycle distribution (NIM DAPI) (A549 cells [6]; 48-hour treatment, 0.3-10 μM): induced an increase of cells in G2/M; Cell cycle distribution (NIM DAPI) (A549 cells [6]; 72-hour treatment, 0.3-10 μM): induced an increase of cells in G2/M; Cell cycle distribution (NIM DAPI) (A549 cells [6]; summary of studies): induced an increase of cells in G2/M; DNMT1 depletion (DNMT1): time- and dose-dependent depletion
